# From patent US8263606B2 (Xenon Pharmaceuticals Inc., priority 2008, dated 2012)
# Key:
# [1] = molecular target: CYP3A4 (Homo sapiens, UniProt P08684); assay: Cytochrome P450 (CYP450) Inhibition Assay, CYP3A4 (Vivid fluorescence, BOMCC substrate); details: human, P450 Baculosomes (recombinant CYP3A4), probe BOMCC (Vivid substrate)
# [2] = system: sodium channel; assay: Guanidine influx assay (14C-guanidine radiotracer flux, in vitro); assay type: cell-based, human or rat; details: guanidine influx assay using a known cell line that expresses a sodium channel; activity level class
# Outline: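 Test agents at half-step dilutions around 1 μM are added to plated cells in low-sodium HEPES buffer, then an aconitine/14C-guanidine mixture; after ambient-temperature incubation, cells are washed and counted. IC50 comes from a sigmoidal fit.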
# Chain of CYP3A4 (P08684 whole entry): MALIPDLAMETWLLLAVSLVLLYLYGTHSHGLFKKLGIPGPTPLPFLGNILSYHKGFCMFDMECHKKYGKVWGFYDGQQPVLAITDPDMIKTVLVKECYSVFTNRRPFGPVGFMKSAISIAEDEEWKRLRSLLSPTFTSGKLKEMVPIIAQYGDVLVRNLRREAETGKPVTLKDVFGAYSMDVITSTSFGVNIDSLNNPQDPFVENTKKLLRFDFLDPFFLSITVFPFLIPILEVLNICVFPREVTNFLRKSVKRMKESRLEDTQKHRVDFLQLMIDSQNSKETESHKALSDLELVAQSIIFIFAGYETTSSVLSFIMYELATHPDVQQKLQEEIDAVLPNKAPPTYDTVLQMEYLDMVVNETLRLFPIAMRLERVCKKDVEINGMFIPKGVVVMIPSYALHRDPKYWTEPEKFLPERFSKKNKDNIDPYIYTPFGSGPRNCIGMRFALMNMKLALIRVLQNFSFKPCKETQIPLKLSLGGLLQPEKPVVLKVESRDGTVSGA
inhibition at 10 µM [1] [%],melting point [°C],IC50 [2] [nM],SMILES
< 50,140 to 142,100 to 1000,"COCCOc1ccc2c(c1)C1(CO2)C(=O)N(Cc2ccccn2)c2ccccc21 (stereo not drawn) [Example 5.35, 5-(2-methoxyethoxy)-1′-(pyridin-2-ylmethyl)spiro[1-benzofuran-3,3′-indol]-2′(1′H)-one]"
< 50,205 to 206,100 to 1000,"O=C1N(Cc2ccccn2)c2ccccc2C12COc1c2ccc2c1OCCO2 (stereo not drawn) [Example 5.36, 1-(pyridin-2-ylmethyl)-2,3-dihydrospiro[furo[2,3-f][1,4]benzodioxine-7,3′-indol]-2′(1′H)-one]"
< 50,206 to 207,100 to 1000,"O=C1N(Cc2ncccc2C(F)(F)F)c2ccccc2C12COc1c2ccc2c1OCCO2 (stereo not drawn) [Example 5.37, 1′-{[3-(trifluoromethyl)pyridin-2-yl]methyl}-2,3-dihyrospiro[furo[2,3-f][1,4]benzodioxine-7,3′-indol]-2′(1′H)-one]"
< 50,> 300,1000 to 10000,"O=C1N(Cc2cc(=O)[nH]c(=O)[nH]2)c2ccccc2C12COc1cc3c(cc12)OCO3 (stereo not drawn) [Example 5.38, 6-[(2′-oxospiro[furo[2,3-f][1,3]benzodioxole-7,3′-indol]-1′(2′H)-yl)methyl]pyrimidine-2,4(1H,3H)-dione]"
> 50,114 to 116,1 to 100,"O=C1N(Cc2nsc(Cl)n2)c2ccccc2C12COc1cc3c(cc12)OCO3 (stereo not drawn) [Example 6, 1′-[(5-chloro-1,2,4-thiadiazol-3-yl)methyl]spiro[furo[2,3-f][1,3]benzodioxole-7,3′-indol]-2′(1′H)-one]"
> 50,174 to 176,1 to 100,"O=C1N(Cc2nsc(Cl)n2)c2cccc(Cl)c2C12COc1cc3c(cc12)OCO3 (stereo not drawn) [Example 6.1, 4′-chloro-1′-[(5-chloro-1,2,4-thiadiazol-3-yl)methyl]spiro[furo[2,3-f][1,3]benzodioxole-7,3′-indol]-2′(1′H)-one]"
> 50,161 to 163,1 to 100,"O=C1N(Cc2sccc2Cl)c2ccccc2C12COc1cc3c(cc12)OCO3 (stereo not drawn) [Example 6.3, 1′-[(3-chlorothiophen-2-yl)methyl]spiro[furo[2,3-f][1,3]benzodioxole-7,3′-indol]-2′(1′H)-one]"
> 50,190 to 192,1000 to 10000,"Cc1onc(-c2c(Cl)cccc2Cl)c1CN1C(=O)C2(COc3cc4c(cc32)OCO4)c2ccccc21 (stereo not drawn) [Example 6.4, 1′-{[3-(2,6-dichlorophenyl)-5-methylisoxazol-4-yl]methyl}spiro[furo[2,3-f][1,3]benzodioxole-7,3′-indol]-2′(1′H)-one]"
> 50,151 to 153,100 to 1000,"O=C1N(Cc2csc(-c3ccc(C(F)(F)F)cc3)n2)c2ccccc2C12COc1cc3c(cc12)OCO3 (stereo not drawn) [Example 6.5, 1′-({2-[4-(trifluoromethyl)phenyl]-1,3-thiazol-4-yl}methyl)spiro[furo[2,3-f][1,3]benzodioxole-7,3′-indol]-2′(1′H)-one]"
> 50,158 to 160,100 to 1000,"O=C1N(Cc2nnc(-c3ccccc3)o2)c2ccccc2C12COc1cc3c(cc12)OCO3 (stereo not drawn) [Example 6.6, 1′-[(5-phenyl-1,3,4-oxadiazol-2-yl)methyl]spiro[furo[2,3-f][1,3]benzodioxole-7,3′-indol]-2′(1′H)-one]"
> 50,161 to 162,100 to 1000,"O=C1N(Cc2nnc(-c3ccc(Cl)cc3)o2)c2ccccc2C12COc1cc3c(cc12)OCO3 (stereo not drawn) [Example 6.7, 1′-{[5-(4-chlorophenyl)-1,3,4-oxadiazol-2-yl]methyl}spiro[furo[2,3-f][1,3]benzodioxole-7,3′-indol]-2′(1′H)-one]"
< 50,202 to 204,1 to 100,"O=C1N(Cc2nc3ncccc3o2)c2ccccc2C12COc1cc3c(cc12)OCO3 (stereo not drawn) [Example 6.8, 1′-([1,3]oxazolo[4,5-b]pyridin-2-ylmethyl)spiro[furo[2,3-f][1,3]benzodioxole-7,3′-indol]-2′(1′H)-one]"
< 50,131 to 134,1 to 100,"O=C1N(Cc2cccc(C(F)(F)F)c2)c2ccccc2C12COc1cc3c(cc12)OCCO3 (stereo not drawn) [Example 7.1, 1′-[3-(trifluoromethyl)benzyl]-2,3-dihydrospiro[furo[2,3-g][1,4]benzodioxine-8,3′-indol]-2′(1′H)-one]"
> 50,88 to 92,1 to 100,"COC(=O)c1ccc(CN2C(=O)C3(COc4cc5c(cc43)OCCO5)c3ccccc32)o1 (stereo not drawn) [Example 7.2, methyl 5-[(2′-oxo-2,3-dihydrospiro[furo[2,3-g][1,4]benzodioxine-8,3′-indol]-1′(2′H)-yl)methyl]furan-2-carboxylate]"
> 50,147 to 149,1 to 100,"O=C1N(C[C@H]2COCCO2)c2ccccc2C12COc1cc3c(cc12)OCO3 (stereo partly drawn) [Example 8, 1′-[(2S)-1,4-dioxan-2-ylmethyl]spiro[furo[2,3-f][1,3]benzodioxole-7,3′-indol]-2′(1′H)-one]"
< 50,192 to 193,100 to 1000,"O=C1N(C[C@H]2CCCO2)c2c(Cl)cccc2C12COc1cc3c(cc12)CCO3 (stereo partly drawn) [Example 8.1, 7′-chloro-1′-[(2R)-tetrahydrofuran-2-ylmethyl]-5,6-dihydrospiro[benzo[1,2-b:5,4-b′]difuran-3,3′-indol]-2′(1′H)-one]"
> 50,175 to 176,1 to 100,"Cc1ccc(F)c2c1N(C[C@H]1CCCO1)C(=O)C21COc2cc3c(cc21)CCO3 (stereo partly drawn) [Example 8.3, 4′-fluoro-7′-methyl-1′-[(2R)-tetrahydrofuran-2-ylmethyl]-5,6-dihydrospiro[benzo[1,2-b:5,4-b′]difuran-3,3′-indol]-2′(1′H)-one]"
< 50,198 to 199,1000 to 10000,"O=C1N(C[C@@H]2COCCO2)c2ccccc2[C@@]12COc1cc3c(cc12)OCCO3 [Example 8.5, (8R)-1′-[(2R)-1,4-dioxan-2-ylmethyl]-2,3-dihydrospiro[furo[2,3-g][1,4]benzodioxine-8,3′-indol]-2′(1′H)-one]"
< 50,162 to 164,100 to 1000,"O=C1N(C[C@H]2CCCO2)c2ccccc2C12COc1cc3c(cc12)OCC3 (stereo partly drawn) [Example 8.9, 1′-[(2R)-tetrahydrofuran-2-ylmethyl]-6,7-dihydrospiro[benzo[1,2-b:4,5-b′]difuran-3,3′-indol]-2′(1′H)-one]"
< 50,162 to 164,100 to 1000,"O=C1N(C[C@@H]2COCCO2)c2ccccc2C12COc1cc3c(cc12)OCC3 (stereo partly drawn) [Example 8.10, 1′-[(2R)-1,4-dioxan-2-ylmethyl]-6,7-dihydrospiro[benzo[1,2-b:4,5-b′]difuran-3,3′-indol]-2′(1′H)-one]"
